From patent US20100160250A1, “METHOD FOR TREATING INFLAMMATORY CONDITIONS” (priority 2008, published 2010) come the findings set out here.

Holding throughout (type): cell-based
Assay [1] deals with T1, P2X7 receptor (Homo sapiens, UniProt Q99572).
T1 sequence (Q99572 1-595): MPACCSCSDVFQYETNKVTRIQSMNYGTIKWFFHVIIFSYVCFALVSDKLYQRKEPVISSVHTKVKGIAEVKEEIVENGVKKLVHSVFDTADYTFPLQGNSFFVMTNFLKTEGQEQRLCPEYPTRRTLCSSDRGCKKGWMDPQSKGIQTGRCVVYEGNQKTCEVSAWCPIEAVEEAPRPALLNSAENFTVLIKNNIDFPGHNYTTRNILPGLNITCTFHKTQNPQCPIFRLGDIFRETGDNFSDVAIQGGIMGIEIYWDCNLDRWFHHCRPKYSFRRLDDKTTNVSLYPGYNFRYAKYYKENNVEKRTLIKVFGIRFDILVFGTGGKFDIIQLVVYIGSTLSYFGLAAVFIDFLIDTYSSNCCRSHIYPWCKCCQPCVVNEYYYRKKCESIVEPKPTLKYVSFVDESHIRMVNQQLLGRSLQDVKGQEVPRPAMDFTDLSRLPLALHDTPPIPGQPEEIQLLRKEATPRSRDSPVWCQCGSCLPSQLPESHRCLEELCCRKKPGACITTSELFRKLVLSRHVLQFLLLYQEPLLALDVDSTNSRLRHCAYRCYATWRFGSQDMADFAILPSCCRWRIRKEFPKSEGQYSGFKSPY
Nature of the assay: IL-1β secretion assay in LPS-primed human monocytes stimulated with ATP. Also noted: monocytes were selected by adherence to the tissue culture plastic; endogenous in cells; host or cells: LPS-primed adherent monocytes from human peripheral blood. Conditions: human peripheral blood monocytes, 1 ng/mL LPS, 1 mM ATP, 30 min; read-out: IL1β inhibition IC50. The text has this:
Inhibition of IL-1β release by antagonists of the P2X7 receptor is a model of ameliorating inflammatory condition. This assay is an in vitro assay of cytokine secretion that can be used to evaluate the ability of compounds of this invention of Formula I to inhibit cytokine secretion, as the secretion of cytokines contributes to the inflammation in asthma, COPD and other pulmonary diseases, as well as in RA, IBD and neuropathic pain.
Peripheral blood from healthy human volunteers was collected in an acid-citrate-dextrose (ACD) buffer to prevent clotting, layered over a Ficoll-Paque gradient (1:1), and centrifuged for 45 minutes at 1200 rpm. The interface between the plasma layer and the Ficoll layer (buffy coat) was then diluted in RPMI 1640/10% heat inactivated FBS and centrifuged for 10 minutes at 1500 rpm. The resultant pellet was re-suspended in media containing 1 ng/mL lipopolysaccharide (LPS) and plated at a density of 500,000 cells/mL. After a 3 hour incubation (37° C., 5% CO2, humidified air) monocytes were selected by adherence to the tissue culture plastic by washing wells with media. Following the media wash, cells were incubated for 2 minutes with the antagonists prior to the addition of 1 mM ATP. Cells were allowed to incubate with compounds for 30 minutes at 37° C. after which the supernatant was removed for immediate determination of IL-1β concentration. The concentration of IL-1β in cell supernatants was measured using the Bio-Plex (Bio-Rad) system according to manufacture's instructions and inhibition constants were calculated using Prism Graph Pad version 3.03 (San Diego, Calif.). IC50 values represent the concentrations of antagonist compounds necessary to inhibit 50% of the activity (calcium dependent fluorescence or IL-1β concentration) elicited by a given concentration of ATP.

Assay [2] deals with T1, P2X7 receptor. Nature of the assay: Pore formation assay (Yo-Pro dye influx) in 1321N1 cells expressing P2X7, BzATP challenge. Also noted: expressed in transfected cells; host or cells: human astrocytoma 1321N1 cells. Conditions: 1321N1 cells expressing P2X7, 100 uM BzATP, Yo-Pro fluorescence after 90 minutes. The protocol: Inhibition of Yo-Pro fluorescent dye influx into the cells following P2X7 receptor activation provides a read-out of compounds potency in inhibition of pore formation activity of the P2X7 receptor.
Assay was conducted essentially as in Alcaraz et al. Human astrocytoma (1321N1) cells expressing P2X7 were seeded in 96-well plates at a density of 200,000 cells/well in assay buffer consisting of 5 mM KCl, 140 mM KAspartate, 10 mM glucose, 10 mM Hepes pH 7.0, 10 mM N-methyl-D-glucoseamine, 1 mM EDTA and 1 uM Yo-Pro dye. Cells were exposed to serially diluted concentrations of compound and then challenged with 100 uM BzATP. Yo-Pro fluorescence was measured after 90 minutes. Inhibition of Yo-Pro dependent fluorescence indicates the assayed compound is an antagonist of the P2X7 receptor.

Assay [3] has as its target T1, P2X7 receptor. Kind of assay: Calcium signalling (Fluo-3, FLIPR) in 1321N1 cells expressing P2X7, BzATP challenge. Also noted: expressed in transfected cells; host or cells: human astrocytoma 1321N1 cells. To be noted: human astrocytoma 1321N1 cells expressing P2X7, 30 uM BzATP; read-out: Inhibition of Ca^+2 signaling IC50. The protocol:
Inhibition of Ca^2+ influx into the cell by antagonists of the P2X7 receptor measures inhibition of the ion channel activity of the P2X7 receptor.
Human astrocytoma (1321N1) cells expressing P2X7 were grown to confluency in 96-well plates. Cells were loaded with a solution of Fluo-3 AM (2.5 μM final concentration) in an assay buffer consisting of 10 mM KCl, 118 mM NaCl, 0.25 mM CaCl2, 1 mM MgCl2, 20 mM HEPES, 10 mM glucose, pH 7.4. After a 60-minute incubation with Fluo-3 AM at 25° C., cells were washed and stimulated with serially diluted concentrations of compound and then challenged with 30 uM BzATP. Calcium fluorescence was measured using the FLIPR 89 (Molecular Devices Corp., Sunnyvale, Calif.) and results were calculated using Prism Graph Pad version 3.03 (San Diego, Calif.). Inhibition of calcium dependent fluorescence indicates the assayed compound is an antagonist of the P2X7 receptor.

In the case of `O=C(Nc1ncnc2c1ncn2[C@@H]1O[C@H](C(=O)O)C2OC3(CCCCC3)O[C@@H]21)NC12CC3CC(CC(C3)C1)C2` (stereo partly drawn) [Compound 38], the concentration for half-maximal inhibition (IC50) was 98 nM on P2X7 receptor [1], 52 nM on P2X7 receptor [2] and 597 nM on P2X7 receptor [3].

For the molecule `CCNC(=O)OC[C@H]1O[C@@H](n2cnc3c(NC(=O)NC4CCCCC4)ncnc32)[C@H]2OC3(CCCCC3)OC12` (stereo partly drawn) [Compound 46], the IC50 at P2X7 receptor [1] came to 99 nM; against P2X7 receptor [2] it was 234 nM; on P2X7 receptor [3], 852 nM.

In the case of `O=C(Nc1ncnc2c1ncn2[C@@H]1O[C@H](CO)C2OC3(CCCCC3)O[C@@H]21)NC1CCCCC1` (stereo partly drawn) [Compound 39, 6-(cyclohexylurea)adenosine 2′,3′-cyclohexyl ketal], the IC50 on P2X7 receptor [1] stood at 65 nM; on P2X7 receptor [2] it was 346 nM; at P2X7 receptor [3] it was 477 nM.

`CCNC(=O)[C@H]1O[C@@H](n2cnc3c(NC(=O)NC4CCCCC4)ncnc32)[C@H]2OC3(CCCCC3)OC12` (stereo partly drawn) [Compound 43, 6-(cyclohexylurea)adenosine 2′,3′-cyclohexyl ketal 5′-ethyl carboxamide]: the IC50 on P2X7 receptor [1] came out at 69 nM; against P2X7 receptor [2], 152 nM; at P2X7 receptor [3], 295 nM.

With `O=C(Nc1ncnc2c1ncn2[C@@H]1O[C@H](C(=O)NCCO)C2OC3(CCCCC3)O[C@@H]21)NC1CCCCC1` (stereo partly drawn) [Compound 44, 6-(cyclohexylurea)adenosine 2′,3′-cyclohexyl ketal 5′-(2-hydroxy)ethyl carboxamide], the results for the IC50 at P2X7 receptor [1], at P2X7 receptor [2] and at P2X7 receptor [3] were 58 nM, 257 nM and 404 nM, respectively.

One may read the IC50 as the concentration at which inhibition is half-maximal.
